In patent US11192877B2, “3-(5-hydroxy-1-oxoisoindolin-2-yl)piperidine-2,6-dione derivatives and uses thereof” (Novartis AG, priority 2018, dated 2021) one finds IKZF2 % protein reduction data, which are given here for 31 compounds.

Chain of IKZF2 (Helios) (Q9UKS7 whole entry): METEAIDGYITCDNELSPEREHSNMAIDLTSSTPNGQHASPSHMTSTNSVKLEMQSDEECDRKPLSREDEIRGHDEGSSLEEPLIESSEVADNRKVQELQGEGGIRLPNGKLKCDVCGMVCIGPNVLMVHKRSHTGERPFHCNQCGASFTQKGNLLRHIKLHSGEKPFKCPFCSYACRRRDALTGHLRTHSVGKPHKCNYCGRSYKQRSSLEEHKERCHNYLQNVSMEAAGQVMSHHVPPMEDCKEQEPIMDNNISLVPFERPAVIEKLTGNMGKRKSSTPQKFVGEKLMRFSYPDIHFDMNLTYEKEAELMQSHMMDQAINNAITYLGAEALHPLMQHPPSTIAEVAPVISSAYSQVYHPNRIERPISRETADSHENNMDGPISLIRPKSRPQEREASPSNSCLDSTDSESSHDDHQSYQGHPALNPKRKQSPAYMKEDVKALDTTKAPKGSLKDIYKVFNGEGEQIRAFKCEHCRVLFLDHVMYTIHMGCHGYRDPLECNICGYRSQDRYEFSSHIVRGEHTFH
Chain of IKZF2 (Helios) (Q96SW2 whole entry): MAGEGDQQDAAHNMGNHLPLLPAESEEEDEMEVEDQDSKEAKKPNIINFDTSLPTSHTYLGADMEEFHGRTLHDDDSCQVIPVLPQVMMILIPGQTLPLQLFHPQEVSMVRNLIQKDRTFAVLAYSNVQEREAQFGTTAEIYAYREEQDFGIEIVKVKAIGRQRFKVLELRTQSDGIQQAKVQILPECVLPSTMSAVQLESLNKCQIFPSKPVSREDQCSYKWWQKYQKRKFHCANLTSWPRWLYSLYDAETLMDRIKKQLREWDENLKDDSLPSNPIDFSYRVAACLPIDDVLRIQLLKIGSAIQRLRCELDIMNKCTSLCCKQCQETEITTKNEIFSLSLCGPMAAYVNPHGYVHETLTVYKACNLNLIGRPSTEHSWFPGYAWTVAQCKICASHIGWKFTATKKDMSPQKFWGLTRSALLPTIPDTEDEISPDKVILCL
Chain of IKZF2 (Helios) (Q16531 whole entry partner): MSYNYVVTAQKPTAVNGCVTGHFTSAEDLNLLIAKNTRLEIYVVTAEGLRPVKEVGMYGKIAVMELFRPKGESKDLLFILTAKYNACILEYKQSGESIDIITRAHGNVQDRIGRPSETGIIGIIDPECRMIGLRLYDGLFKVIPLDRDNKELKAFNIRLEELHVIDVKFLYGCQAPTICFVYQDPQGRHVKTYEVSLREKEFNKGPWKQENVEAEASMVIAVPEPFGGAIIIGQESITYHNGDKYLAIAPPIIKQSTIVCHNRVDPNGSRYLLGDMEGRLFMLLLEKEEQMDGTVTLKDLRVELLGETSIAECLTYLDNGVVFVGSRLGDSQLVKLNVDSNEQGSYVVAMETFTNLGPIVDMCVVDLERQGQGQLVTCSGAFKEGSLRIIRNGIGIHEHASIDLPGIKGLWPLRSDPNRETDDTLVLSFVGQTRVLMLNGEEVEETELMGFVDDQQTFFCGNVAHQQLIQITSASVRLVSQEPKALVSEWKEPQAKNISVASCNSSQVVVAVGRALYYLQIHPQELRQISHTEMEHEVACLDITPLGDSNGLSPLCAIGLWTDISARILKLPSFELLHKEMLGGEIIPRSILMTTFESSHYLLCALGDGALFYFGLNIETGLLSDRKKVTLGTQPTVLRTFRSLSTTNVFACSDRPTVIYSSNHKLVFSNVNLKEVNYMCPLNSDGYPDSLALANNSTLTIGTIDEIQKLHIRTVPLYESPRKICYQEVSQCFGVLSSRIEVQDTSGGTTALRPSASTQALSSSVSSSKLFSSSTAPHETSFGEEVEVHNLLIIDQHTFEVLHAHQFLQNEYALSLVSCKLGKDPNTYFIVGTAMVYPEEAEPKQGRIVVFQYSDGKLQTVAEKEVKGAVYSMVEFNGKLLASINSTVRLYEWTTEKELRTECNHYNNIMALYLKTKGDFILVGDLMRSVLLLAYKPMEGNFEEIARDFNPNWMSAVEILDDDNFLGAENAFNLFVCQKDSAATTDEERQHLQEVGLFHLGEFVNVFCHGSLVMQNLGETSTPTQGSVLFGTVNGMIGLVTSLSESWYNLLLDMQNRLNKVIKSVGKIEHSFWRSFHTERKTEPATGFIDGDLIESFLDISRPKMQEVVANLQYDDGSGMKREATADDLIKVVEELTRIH

One assay concerns the target IKZF2 (Helios) (Homo sapiens, UniProt Q96SW2+Q9UKS7). The assay can be described thus: Prolabel quantification of IKZF2 protein levels in 293GT cells. It is filed as cell-based. As to conditions: 24 h, Pro-label assay, 293GT cells, 10 μM, read-out: IKZF2 % protein reduction at 10 μM, 24 h.
`O=C1CCC(N2Cc3cc(O[C@H]4CCCC[C@@H]4NCCO)ccc3C2=O)C(=O)N1` (stereo partly drawn) [I-82, 3-(5-(((1S,2S)-2-((2-hydroxyethyl)amino)cyclohexyl)oxy)-1-oxoisoindolin-2-yl)piperidine-2,6-dione]: the IKZF2 % protein reduction at 10 µM was found to be 58%.
As to `O=C1CCC(N2Cc3cc(O[C@H]4CCCC[C@@H]4N4CCCC4)ccc3C2=O)C(=O)N1` (stereo partly drawn) [I-83, 3-(1-oxo-5-(((1S,2S)-2-(pyrrolidin-1-yl)cyclohexyl)oxy)isoindolin-2-yl)piperidine-2,6-dione], the IKZF2 % protein reduction at 10 µM is 86%.
Still for that read-out and setting: the value for `O=C1CCC(N2Cc3cc(O[C@H]4CCCC[C@@H]4N4CCOCC4)ccc3C2=O)C(=O)N1` (stereo partly drawn) [I-84, 3-(5-(((1S,2S)-2-morpholinocyclohexyl)oxy)-1-oxoisoindolin-2-yl)piperidine-2,6-dione] was 35%.
On the same count and under the same terms, the value for `O=C1CCC(N2Cc3cc(O[C@H]4CCCC[C@@H]4NCc4ccccn4)ccc3C2=O)C(=O)N1` (stereo partly drawn) [I-85, 3-(1-oxo-5-(((1S,2S)-2-((pyridin-2-ylmethyl)amino)cyclohexyl)oxy)isoindolin-2-yl)piperidine-2,6-dione] was 69%; that for `CC(C)(O)CCN[C@H]1CCCC[C@@H]1Oc1ccc2c(c1)CN(C1CCC(=O)NC1=O)C2=O` (stereo partly drawn) [I-86, 3-(5-(((1S,2S)-2-((3-hydroxy-3-methylbutyl)amino)cyclohexyl)oxy)-1-oxoisoindolin-2-yl)piperidine-2,6-dione] was 76%; that for `CC1(CN[C@H]2CCCC[C@@H]2Oc2ccc3c(c2)CN(C2CCC(=O)NC2=O)C3=O)COC1` (stereo partly drawn) [I-87, 3-(5-(((1S,2S)-2-(((3-methyloxetan-3-yl)methyl)amino)cyclohexyl)oxy)-1-oxoisoindolin-2-yl)piperidine-2,6-dione] was 79%.
Same read-out and setting: the value for `COC1(C)CCN([C@H]2CCCC[C@@H]2Oc2ccc3c(c2)CN(C2CCC(=O)NC2=O)C3=O)CC1` (stereo partly drawn) [I-88, 3-(5-(((1S,2S)-2-(4-methoxy-4-methylpiperidin-1-yl)cyclohexyl)oxy)-1-oxoisoindolin-2-yl)piperidine-2,6-dione] was 57%; that for `COC1CN([C@H]2CCCC[C@@H]2Oc2ccc3c(c2)CN(C2CCC(=O)NC2=O)C3=O)C1` (stereo partly drawn) [I-89, 3-(5-(((1S,2S)-2-(3-methoxyazetidin-1-yl)cyclohexyl)oxy)-1-oxoisoindolin-2-yl)piperidine-2,6-dione] was 82%.
`COc1ccc(CN[C@H]2CCCC[C@@H]2Oc2ccc3c(c2)CN(C2CCC(=O)NC2=O)C3=O)nc1` (stereo partly drawn) [I-91, 3-(5-(((1S,2S)-2-(((5-methoxypyridin-2-yl)methyl)amino)cyclohexyl)oxy)-1-oxoisoindolin-2-yl)piperidine-2,6-dione]: the IKZF2 % protein reduction at 10 µM amounted to 58%.
The same measure, in the same setting: the value for `COc1ccc(CN[C@H]2CCCC[C@@H]2Oc2ccc3c(c2)CN(C2CCC(=O)NC2=O)C3=O)cn1` (stereo partly drawn) [I-92, 3-(5-(((1S,2S)-2-(((6-methoxypyridin-3-yl)methyl)amino)cyclohexyl)oxy)-1-oxoisoindolin-2-yl)piperidine-2,6-dione] was 60%.
For the compound `CC(C)(O)CN[C@H]1CCCC[C@@H]1Oc1ccc2c(c1)CN(C1CCC(=O)NC1=O)C2=O` (stereo partly drawn) [I-93, 3-(5-(((1S,2S)-2-((2-hydroxy-2-methylpropyl)amino)cyclohexyl)oxy)-1-oxoisoindolin-2-yl)piperidine-2,6-dione], the IKZF2 % protein reduction at 10 µM turned out to be 60%.
Same read-out and setting: the value for `CC1(C#N)CC(CNC2CCCCC2Oc2ccc3c(c2)CN(C2CCC(=O)NC2=O)C3=O)C1` [I-95, (1R,3s)-3-((((1S,2S)-2-((2-(2,6-dioxopiperidin-3-yl)-1-oxoisoindolin-5-yl)oxy)cyclohexyl)amino)methyl)-1-methylcyclobutane-1-carbonitrile] was 84%; that for `O=C1CCC(N2Cc3cc(O[C@H]4CCC[C@@H]4N4CCC(O)CC4)ccc3C2=O)C(=O)N1` (stereo partly drawn) [I-96, 3-(5-(((1S,2S)-2-(4-hydroxypiperidin-1-yl)cyclopentyl)oxy)-1-oxoisoindolin-2-yl)piperidine-2,6-dione] was 81%.
The same measure, in the same setting: the value for `O=C1CCC(N2Cc3cc(O[C@H]4CCCC[C@@H]4N4CCCCC4)ccc3C2=O)C(=O)N1` (stereo partly drawn) [I-97, 3-(1-oxo-5-(((1S,2S)-2-(piperidin-1-yl)cyclohexyl)oxy)isoindolin-2-yl)piperidine-2,6-dione] was 36%; that for `O=C1CCC(N2Cc3cc(O[C@H]4CCCC[C@@H]4NCC4CCOCC4)ccc3C2=O)C(=O)N1` (stereo partly drawn) [I-98, 3-(1-oxo-5-(((1S,2S)-2-(((tetrahydro-2H-pyran-4-yl)methyl)amino)cyclohexyl)oxy)isoindolin-2-yl)piperidine-2,6-dione] was 80%; that for `CO[C@H]1CC[C@H](CN[C@H]2CCCC[C@@H]2Oc2ccc3c(c2)CN(C2CCC(=O)NC2=O)C3=O)CC1` (stereo partly drawn) [I-101, 3-(5-(((1S,2S)-2-((((1r,4S)-4-methoxycyclohexyl)methyl)amino)cyclohexyl)oxy)-1-oxoisoindolin-2-yl)piperidine-2,6-dione] was 73%.
Still for that read-out and setting: the value for `CC1(CN[C@H]2CCCC[C@@H]2Oc2ccc3c(c2)CN(C2CCC(=O)NC2=O)C3=O)CCOCC1` (stereo partly drawn) [I-102, 3-(5-(((1S,2S)-2-(((4-methyltetrahydro-2H-pyran-4-yl)methyl)amino)cyclohexyl)oxy)-1-oxoisoindolin-2-yl)piperidine-2,6-dione] was 73%; that for `O=C1CCC(N2Cc3cc(O[C@H]4CCCC[C@@H]4NCc4cncnc4)ccc3C2=O)C(=O)N1` (stereo partly drawn) [I-103, 3-(1-oxo-5-(((1S,2S)-2-((pyrimidin-5-ylmethyl)amino)cyclohexyl)oxy)isoindolin-2-yl)piperidine-2,6-dione] was 54%; that for `O=C1CCC(N2Cc3cc(O[C@H]4CCCC[C@@H]4NCCC4CCOCC4)ccc3C2=O)C(=O)N1` (stereo partly drawn) [I-104, 3-(1-oxo-5-(((1S,2S)-2-((2-(tetrahydro-2H-pyran-4-yl)ethyl)amino)cyclohexyl)oxy)isoindolin-2-yl)piperidine-2,6-dione] was 87%.
`O=C1CCC(N2Cc3cc(O[C@H]4CCCC[C@@H]4N4CCC5(CC4)COC5)ccc3C2=O)C(=O)N1` (stereo partly drawn) [I-105, 3-(5-(((1S,2S)-2-(2-oxa-7-azaspiro[3.5]nonan-7-yl)cyclohexyl)oxy)-1-oxoisoindolin-2-yl)piperidine-2,6-dione]: the IKZF2 % protein reduction at 10 µM stood at 52%.
Consider `COC1(CN[C@H]2CCCC[C@@H]2Oc2ccc3c(c2)CN(C2CCC(=O)NC2=O)C3=O)CCOCC1` (stereo partly drawn) [I-106, 3-(5-(((1S,2S)-2-(((4-methoxytetrahydro-2H-pyran-4-yl)methyl)amino)cyclohexyl)oxy)-1-oxoisoindolin-2-yl)piperidine-2,6-dione], for which the IKZF2 % protein reduction at 10 µM worked out at 51%.
On the same count and under the same terms, under `CC1(C)CC(CN[C@H]2CCCC[C@@H]2Oc2ccc3c(c2)CN(C2CCC(=O)NC2=O)C3=O)CCO1` (stereo partly drawn) [I-107, 3-(5-(((1S,2S)-2-(((2,2-dimethyltetrahydro-2H-pyran-4-yl)methyl)amino)cyclohexyl)oxy)-1-oxoisoindolin-2-yl)piperidine-2,6-dione] stands 89%; under `O=C1CCC(N2Cc3cc(O[C@H]4CCCC[C@@H]4NC4CC5(CCOCC5)C4)ccc3C2=O)C(=O)N1` (stereo partly drawn) [I-110, 3-(5-(((1S,2S)-2-((7-oxaspiro[3.5]nonan-2-yl)amino)cyclohexyl)oxy)-1-oxoisoindolin-2-yl)piperidine-2,6-dione], 89%; under `N#CC1(CN[C@H]2CCCC[C@@H]2Oc2ccc3c(c2)CN(C2CCC(=O)NC2=O)C3=O)CCC1` (stereo partly drawn) [I-111, 1-((((1S,2S)-2-((2-(2,6-dioxopiperidin-3-yl)-1-oxoisoindolin-5-yl)oxy)cyclohexyl)amino)methyl)cyclobutane-1-carbonitrile], 59%.
As to `O=C1CCC(N2Cc3cc(O[C@H]4CCCC[C@@H]4N4CC(Oc5ccccc5Cl)C4)ccc3C2=O)C(=O)N1` (stereo partly drawn) [I-112, 3-(5-(((1S,2S)-2-(3-(2-chlorophenoxy)azetidin-1-yl)cyclohexyl)oxy)-1-oxoisoindolin-2-yl)piperidine-2,6-dione], the IKZF2 % protein reduction at 10 µM is 95%.
Still for that read-out and setting: the value for `COc1ccccc1OC1CN([C@H]2CCCC[C@@H]2Oc2ccc3c(c2)CN(C2CCC(=O)NC2=O)C3=O)C1` (stereo partly drawn) [I-113, 3-(5-(((1S,2S)-2-(3-(2-methoxyphenoxy)azetidin-1-yl)cyclohexyl)oxy)-1-oxoisoindolin-2-yl)piperidine-2,6-dione] was 93%; that for `O=C1CCC(N2Cc3cc(O[C@H]4CCCC[C@@H]4NCc4cnc5ccnn5c4)ccc3C2=O)C(=O)N1` (stereo partly drawn) [I-114, 3-(1-oxo-5-(((1S,2S)-2-((pyrazolo[1,5-a]pyrimidin-6-ylmethyl)amino)cyclohexyl)oxy)isoindolin-2-yl)piperidine-2,6-dione] was 54%.
Regarding `O=C1CCC(N2Cc3cc(O[C@H]4CCCC[C@@H]4NC4CCC(F)(F)CC4)ccc3C2=O)C(=O)N1` (stereo partly drawn) [I-115, 3-(5-(((1S,2S)-2-((4,4-difluorocyclohexyl)amino)cyclohexyl)oxy)-1-oxoisoindolin-2-yl)piperidine-2,6-dione], the IKZF2 % protein reduction at 10 µM came out at 90%.
The same measure, in the same setting: under `O=C1CCC(N2Cc3cc(O[C@H]4CCCC[C@@H]4NCc4ccc(F)cc4F)ccc3C2=O)C(=O)N1` (stereo partly drawn) [I-116, 3-(5-(((1S,2S)-2-((2,4-difluorobenzyl)amino)cyclohexyl)oxy)-1-oxoisoindolin-2-yl)piperidine-2,6-dione] stands 65%; under `N#CC12CC(CN[C@H]3CCCC[C@@H]3Oc3ccc4c(c3)CN(C3CCC(=O)NC3=O)C4=O)(C1)C2` (stereo partly drawn) [I-120, 3-((((1S,2S)-2-((2-(2,6-dioxopiperidin-3-yl)-1-oxoisoindolin-5-yl)oxy)cyclohexyl)amino)methyl)bicyclo[1.1.1]pentane-1-carbonitrile], 66%.

The assay is the same for the next values; noted with them: 24 h, read-out: IKZF2 % protein reduction at 10 μM, 24 h.
As for `Cc1cccc(CN[C@H]2CCCC[C@@H]2Oc2ccc3c(c2)CN(C2CCC(=O)NC2=O)C3=O)n1` (stereo partly drawn) [I-90, 3-(5-(((1S,2S)-2-(((6-methylpyridin-2-yl)methyl)amino)cyclohexyl)oxy)-1-oxoisoindolin-2-yl)piperidine-2,6-dione], the IKZF2 % protein reduction at 10 µM stood at 57%.
